In a compilation of properties of binary mixtures (doi:10.1016/j.molliq.2017.09.070):

Assay: xn = mol fraction of the nth substance listed
Conditions: 100 kPa; for viscosity: 298.1 K

CC1COC(=O)O1 (stereo unspecified) + CCCC[n+]1ccn(C)c1.O=S(=O)([N-]S(=O)(=O)C(F)(F)F)C(F)(F)F
Conditions | viscosity [mPa·s]
x2 = 0.2 | 7.5
x2 = 0.4 | 11.9
x2 = 0.6 | 20
x2 = 0.8 | 31.4
x2 = 0.9 | 35.4

CCCC[N+]1(C)CCCC1.O=S(=O)([N-]S(=O)(=O)C(F)(F)F)C(F)(F)F + CC1COC(=O)O1
Conditions | electrical conductivity [S/m]
296.9 K, x1 = 0.4 | 0.781
297.1 K, x1 = 0.6 | 0.543
297.1 K, x1 = 0.9 | 0.347
297.3 K, x1 = 0.2 | 1
299.8 K, x1 = 0.9 | 0.366
299.9 K, x1 = 0.2 | 1.02
299.9 K, x1 = 0.6 | 0.571
302.5 K, x1 = 0.2 | 1.04
302.5 K, x1 = 0.4 | 0.835
302.6 K, x1 = 0.6 | 0.593
302.6 K, x1 = 0.8 | 0.444
302.6 K, x1 = 0.9 | 0.387
305.3 K, x1 = 0.4 | 0.864
305.4 K, x1 = 0.2 | 1.07
305.4 K, x1 = 0.6 | 0.615
305.4 K, x1 = 0.8 | 0.471
305.4 K, x1 = 0.9 | 0.417
307.9 K, x1 = 0.4 | 0.882
307.9 K, x1 = 0.8 | 0.501
308.1 K, x1 = 0.9 | 0.437
308.2 K, x1 = 0.6 | 0.639
308.4 K, x1 = 0.2 | 1.11
310.9 K, x1 = 0.4 | 0.901
310.9 K, x1 = 0.9 | 0.461
311.1 K, x1 = 0.2 | 1.13
311.1 K, x1 = 0.6 | 0.666
313.5 K, x1 = 0.9 | 0.487
313.7 K, x1 = 0.6 | 0.683
316.3 K, x1 = 0.4 | 0.963
316.3 K, x1 = 0.8 | 0.578
316.5 K, x1 = 0.6 | 0.704
316.5 K, x1 = 0.9 | 0.508
319 K, x1 = 0.4 | 0.988
319.2 K, x1 = 0.2 | 1.19
319.2 K, x1 = 0.8 | 0.603
319.2 K, x1 = 0.9 | 0.529
321.9 K, x1 = 0.4 | 1.01
322.1 K, x1 = 0.2 | 1.2
322.1 K, x1 = 0.8 | 0.628
322.3 K, x1 = 0.6 | 0.746
324.6 K, x1 = 0.2 | 1.22
324.7 K, x1 = 0.8 | 0.652
324.9 K, x1 = 0.4 | 1.02
324.9 K, x1 = 0.6 | 0.771
324.9 K, x1 = 0.9 | 0.59
327.2 K, x1 = 0.9 | 0.615
327.4 K, x1 = 0.2 | 1.24
327.4 K, x1 = 0.4 | 1.05
327.4 K, x1 = 0.8 | 0.677
330.1 K, x1 = 0.4 | 1.07
330.3 K, x1 = 0.6 | 0.811
330.4 K, x1 = 0.8 | 0.701
332.9 K, x1 = 0.8 | 0.721
333 K, x1 = 0.2 | 1.27
333 K, x1 = 0.4 | 1.09
333 K, x1 = 0.9 | 0.661
333.2 K, x1 = 0.6 | 0.828
335.5 K, x1 = 0.9 | 0.683
335.7 K, x1 = 0.2 | 1.3
335.9 K, x1 = 0.6 | 0.842
335.9 K, x1 = 0.8 | 0.74
336 K, x1 = 0.4 | 1.12
338.5 K, x1 = 0.4 | 1.13
338.5 K, x1 = 0.9 | 0.706
338.7 K, x1 = 0.6 | 0.864
341.4 K, x1 = 0.4 | 1.16
341.4 K, x1 = 0.9 | 0.734
341.6 K, x1 = 0.2 | 1.32
343.8 K, x1 = 0.8 | 0.804
344 K, x1 = 0.2 | 1.33
344 K, x1 = 0.4 | 1.16
344.2 K, x1 = 0.9 | 0.752
344.4 K, x1 = 0.6 | 0.908
347 K, x1 = 0.2 | 1.34
347 K, x1 = 0.6 | 0.935
347 K, x1 = 0.8 | 0.835
347 K, x1 = 0.9 | 0.781
349.5 K, x1 = 0.8 | 0.849
349.9 K, x1 = 0.2 | 1.36
349.9 K, x1 = 0.9 | 0.808
350.1 K, x1 = 0.6 | 0.951

Conditions | viscosity [mPa·s]
x1 = 0.2 | 5.5
x1 = 0.4 | 13.7
x1 = 0.6 | 29.8
x1 = 0.8 | 41.3
x1 = 0.9 | 48.1
